This note sets out measurements from US7820630B2, “Substituted indole-O-glucosides” (Janssen Pharmaceutica NV, priority 2003, dated 2010).

Each structure is given as a SMILES string. pIC50: −log10 of the molar value.

One experiment has as its target T1, human SGLT2 (Homo sapiens, UniProt P31639).
T1 construct: expressed in transfected cells
T1 sequence (P31639 1-672): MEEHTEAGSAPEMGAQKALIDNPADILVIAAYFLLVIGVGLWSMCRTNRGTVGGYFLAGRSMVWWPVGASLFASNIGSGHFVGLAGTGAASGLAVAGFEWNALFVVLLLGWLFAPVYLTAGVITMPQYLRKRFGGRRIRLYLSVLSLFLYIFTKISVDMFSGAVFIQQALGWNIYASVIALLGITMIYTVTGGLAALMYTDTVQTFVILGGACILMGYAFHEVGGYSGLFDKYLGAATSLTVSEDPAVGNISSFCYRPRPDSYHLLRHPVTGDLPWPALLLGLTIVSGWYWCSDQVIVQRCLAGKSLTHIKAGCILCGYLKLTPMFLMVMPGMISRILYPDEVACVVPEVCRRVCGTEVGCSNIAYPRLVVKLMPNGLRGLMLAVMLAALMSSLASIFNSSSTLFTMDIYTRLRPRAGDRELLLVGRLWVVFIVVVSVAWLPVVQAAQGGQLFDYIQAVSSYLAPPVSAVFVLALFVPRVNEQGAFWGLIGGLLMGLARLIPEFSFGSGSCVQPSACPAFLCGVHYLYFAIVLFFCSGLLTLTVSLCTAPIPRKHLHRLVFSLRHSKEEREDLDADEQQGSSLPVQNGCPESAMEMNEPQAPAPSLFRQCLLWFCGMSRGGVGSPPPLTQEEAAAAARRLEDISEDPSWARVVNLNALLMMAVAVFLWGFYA
The experiment can be described thus: Cell-based assay for sodium-dependent glucose transport (14C-AMG uptake), CHOK-SGLT2. The conditions noted are these: CHO-K1 cells stably expressing human SGLT2; for pIC50: Na-dependent 14C-AMG uptake; for inhibition at 10 µM: 10 μM compound, read-out: CHOK-SGLT2 % Inh. @ 10 μM. Here is the method:
(§1) Cloning of the human SGLT1 and human SGLT2 cDNAs and construction of the mammalian expression vector: The human SGLT1 cDNA (Genbank M24847) was cloned from human small intestine. Human SGLT2 cDNA (Genbank M95549) was cloned from human kidney. Both full cDNAs were subcloned into pcDNA and sequenced to verify the integrity of the construct.
(§2) Generation of CHO-K1 cells stably expressing human SGLT1 or human SGLT2: Transfection of CHO-K1 cells was performed using DMRIE-C reagent (Life Technologies, Gaithersburg, Md.). Transfectants were then selected in the presence of the antibiotic G418 (Gibco-BRL, Grand Island, N.Y.) at 400 μg/ml. Individual clones were then characterized using the functional assay described below.
(§3) Cell-based assay for sodium-dependent glucose transport: Cell lines stably expressing human SGLT1 or SGLT2 were then used for functional analysis of Na+-dependent glucose uptake. Briefly, cells were plated at a density of 65,000 cells per well in a 96-well plate and allowed to grow for 48 hours. Cells were subsequently washed one time with Assay Buffer (50 mM HEPES pH […], 5 mM KCl, 1 mM MgCl2, 1 mM CaCl2 and 137 mM NaCl) and treated with compound in the absence or presence of NaCl for 15 minutes. Cells were then labeled with ^14C-α-methylglucopyranoside (AMG, Sigma, St. Louis, Mo.), a non-metabolizable glucose analog specific for sodium-dependent glucose transporters as previously described (Peng, H. and Lever J. E. Post-transcriptional regulation of Na^+/glucose cotransporter (SGLT1) gene expression in LLC-PK1 cells. J Biol Chem 1995; 270:20536-20542.). After 2 hours the labeled cells were washed three times with ice-cold PBS. After aspiration, cells were solubilized using Microscint 20 (Packard, Meriden, Conn.) and Na-dependent ^14C-AMG uptake was quantified by measuring radioactivity. Plates were counted in a TopCount (Packard, Meriden, Conn.). Results are reported as the % inhibition or IC50 value from a representative experiment. Variability for the functional assay was typically within 20%.

In another experiment the target is T2, human SGLT1 (Homo sapiens, UniProt P13866).
T2 construct: expressed in transfected cells
T2 sequence (P13866 1-664): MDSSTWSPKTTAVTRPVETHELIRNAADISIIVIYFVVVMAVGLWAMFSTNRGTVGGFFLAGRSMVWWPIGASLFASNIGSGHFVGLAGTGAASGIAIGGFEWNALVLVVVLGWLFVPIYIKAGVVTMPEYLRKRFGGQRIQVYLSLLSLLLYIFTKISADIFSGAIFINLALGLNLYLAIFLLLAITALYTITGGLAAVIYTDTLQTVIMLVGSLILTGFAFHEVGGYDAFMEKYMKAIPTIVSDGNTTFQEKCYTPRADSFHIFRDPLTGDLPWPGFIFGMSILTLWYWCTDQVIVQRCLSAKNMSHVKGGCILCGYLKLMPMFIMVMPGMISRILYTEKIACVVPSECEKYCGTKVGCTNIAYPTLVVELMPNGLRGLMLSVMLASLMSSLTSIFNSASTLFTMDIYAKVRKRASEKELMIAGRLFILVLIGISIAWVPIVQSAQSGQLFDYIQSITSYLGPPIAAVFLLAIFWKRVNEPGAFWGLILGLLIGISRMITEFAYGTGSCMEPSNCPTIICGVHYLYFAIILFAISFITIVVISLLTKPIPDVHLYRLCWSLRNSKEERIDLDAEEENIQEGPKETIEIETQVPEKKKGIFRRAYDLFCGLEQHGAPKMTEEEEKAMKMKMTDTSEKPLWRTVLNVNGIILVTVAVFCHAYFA
In words: Cell-based assay for sodium-dependent glucose transport (14C-AMG uptake), CHOK-SGLT1. The conditions noted are these: CHO-K1 cells stably expressing human SGLT1; for inhibition at 10 µM: 10 μM compound, read-out: CHOK-SGLT1 % Inh. @ 10 μM; for pIC50: Na-dependent 14C-AMG uptake. Here is the method: as §1, §2, §3

For `CC(C)c1ccc(Cc2c[nH]c3cccc(O[C@@H]4O[C@H](CO)[C@@H](O)[C@H](O)[C@H]4O)c23)cc1` [Example 18, 2-[3-(4-isopropyl-benzyl)-1H-indol-4-yloxy]-β-D-glucopyranoside], at human SGLT2, the pIC50 (in general, the IC50 on a negative log10 scale, so that one unit is a factor of ten) was 7.06. In addition, the inhibition at 10 µM at human SGLT1 came to 49%.
Turning to `OC[C@H]1O[C@@H](Oc2cccc3[nH]cc(Cc4ccc(-c5ccccc5)cc4)c23)[C@H](O)[C@@H](O)[C@@H]1O` [Example 19, 2-(3-Biphenyl-4-ylmethyl-1H-indol-4-yloxy)-β-D-glucopyranoside], the negative logarithm of the IC50 (pIC50) against human SGLT2 is 7.00. Also, the inhibition at 10 µM at human SGLT1 was 63%.
As to `OC[C@H]1O[C@@H](Oc2cccc3[nH]cc(Cc4ccc(-c5ccccc5)c(F)c4)c23)[C@H](O)[C@@H](O)[C@@H]1O` [Example 20, 2-[3-(2-Fluoro-biphenyl-4-ylmethyl)-1H-indol-4-yloxy]-β-D-glucopyranoside], on human SGLT2, the negative logarithm of the IC50 (pIC50) was 6.94. Further, the inhibition at 10 µM at human SGLT1 worked out at 35%.
With `CCN(CC)C(=O)n1cc(Cc2ccc(OC)cc2)c2c(O[C@@H]3O[C@H](CO)[C@@H](O)[C@H](O)[C@H]3O)cccc21` [Example 21, 2-[1-Diethylcarbamoyl-3-(4-methoxy-benzyl)-1H-indol-4-yloxy]-β-D-glucopyranoside], at human SGLT2, the negative-log IC50 (pIC50) was 5.84. For the same compound, the inhibition at 10 µM on human SGLT1 was 43%.
`COc1ccc(Cc2c[nH]c3cccc(O[C@@H]4O[C@H](CO)[C@@H](O)[C@H](O)[C@H]4O)c23)cc1` [Example 22, 2-[3-(4-Methoxy-benzyl)-1H-indol-4-yloxy]-β-D-glucopyranoside]: the negative logarithm of the IC50 (pIC50) on human SGLT2 is 6.93; on human SGLT1 it was 5.95.
With `COc1ccc(Cc2cn(C)c3cccc(O[C@@H]4O[C@H](CO)[C@@H](O)[C@H](O)[C@H]4O)c23)cc1` [Example 23, 2-[3-(4-Methoxy-benzyl)-1-methyl-1H-indol-4-yloxy]-β-D-glucopyranoside], the pIC50 at human SGLT2 is 5.91. For the same compound, the inhibition at 10 µM at human SGLT1 amounted to 69%.
`COc1ccc(Cc2c[nH]c3cccc(O[C@@H]4O[C@H](CO)[C@@H](O)[C@H](O)[C@H]4O)c23)cc1F` [Example 24, 2-[3-(3-Fluoro-4-methoxy-benzyl)-1H-indol-4-yloxy]-D-glucopyranoside] gave a pIC50 against human SGLT2 of 6.69. In addition, on human SGLT1, the inhibition at 10 µM worked out at 79%.
For `CCOc1ccc(Cc2c[nH]c3cccc(O[C@@H]4O[C@H](CO)[C@@H](O)[C@H](O)[C@H]4O)c23)cc1` [Example 25, 2-[3-(4-Ethoxy-benzyl)-1H-indol-4-yloxy]-β-D-glucopyranoside] the same measures were 7.00 and 49%.
Turning to `CSc1ccc(Cc2c[nH]c3cccc(O[C@@H]4O[C@H](CO)[C@@H](O)[C@H](O)[C@H]4O)c23)cc1` [Example 27, 2-[3-(4-Methylsulfanyl-benzyl)-1H-indol-4-yloxy]-β-D-glucopyranoside], the pIC50 against human SGLT2 was 7.59; against human SGLT1, 5.88.
On to `OC[C@H]1O[C@@H](Oc2cccc3[nH]cc(Cc4ccc(Cl)cc4)c23)[C@H](O)[C@@H](O)[C@@H]1O` [Example 28, 2-[3-(4-Chloro-benzyl)-1H-indol-4-yloxy]-β-D-glucopyranoside], for which the pIC50 on human SGLT2 is 6.46. Besides, at human SGLT1, the inhibition at 10 µM stood at 58%.
As for `OC[C@H]1O[C@@H](Oc2cccc3[nH]cc(Cc4ccc5ccccc5c4)c23)[C@H](O)[C@@H](O)[C@@H]1O` [Example 29, 2-(3-Naphthalen-2-ylmethyl-1H-indol-4-yloxy)-β-D-glucopyranoside], the pIC50 against human SGLT2 is 6.59. Moreover, on human SGLT1, the inhibition at 10 µM stood at 68%.
On human SGLT2, `OC[C@H]1O[C@@H](Oc2cccc3[nH]cc(Cc4ccc5c(c4)CCO5)c23)[C@H](O)[C@@H](O)[C@@H]1O` [Example 30, 2-[3-(2,3-Dihydro-benzofuran-5-ylmethyl)-1H-indol-4-yloxy]-β-D-glucopyranoside] had a pIC50 of 5.73. In addition, the inhibition at 10 µM at human SGLT1 is 30%.
Compound `CCc1ccc(Cc2c[nH]c3cc(C)cc(O[C@@H]4O[C@H](CO)[C@@H](O)[C@H](O)[C@H]4O)c23)cc1` [Example 32, 2-[3-(4-Ethyl-benzyl)-6-methyl-1H-indol-4-yloxy]-β-D-glucopyranoside] showed a pIC50 against human SGLT2 of 6.93. Moreover, the inhibition at 10 µM on human SGLT1 worked out at 30%.
For `Cc1ccsc1Cc1c[nH]c2cccc(O[C@@H]3O[C@H](CO)[C@@H](O)[C@H](O)[C@H]3O)c12` [Example 34] the same measures were 5.30 and 27%.
For the compound `OC[C@H]1O[C@@H](Oc2cccc3[nH]cc(Cc4ccc(-c5cccnc5)cc4)c23)[C@H](O)[C@@H](O)[C@@H]1O` [Example 35, 2-[3-(4-Pyridin-3-yl-benzyl)-1H-indol-4-yloxy]-β-D-glucopyranoside], the figures for the pIC50 against human SGLT2 and against human SGLT1 were 6.88 and 5.95, respectively.
As to `CCc1ccc(Cc2c(C)[nH]c3cccc(O[C@@H]4O[C@H](CO)[C@@H](O)[C@H](O)[C@H]4O)c23)cc1` [Example 36, 2-[3-(4-Ethyl-benzyl)-2-methyl-1H-indol-4-yloxy]-β-D-glucopyranoside], the inhibition at 10 µM at human SGLT2 was determined as 52%; at human SGLT1 it was 16%.
As for `OC[C@H]1O[C@@H](Oc2cccc3[nH]cc(Cc4ccc(-c5ccsc5)cc4)c23)[C@H](O)[C@@H](O)[C@@H]1O` [Example 37, 2-[3-(4-Thiophen-3-yl-benzyl)-1H-indol-4-yloxy]-β-D-glucopyranoside], the values for the pIC50 at human SGLT2 and against human SGLT1 were 7.47 and 5.72, respectively.
Consider `CCc1ccc(C(=O)c2c[nH]c3cccc(O[C@@H]4O[C@H](CO)[C@@H](O)[C@H](O)[C@H]4O)c23)cc1` [Example 38, 2-[3-(4-Ethylbenzoyl)-1H-indol-4-yloxy]-β-D-glucopyranoside], for which the inhibition at 10 µM at human SGLT2 was determined as 22%; on human SGLT1, 7%.
